Patent US8691840B2, “N-biarylamides” (Bayer Intellectual Property GmbH, priority 2003, dated 2014)
Structures can show the parent of a compound that is named as a salt.

The molecules below were run against α7 nAChR (Rattus norvegicus (Rat), UniProt Q05941) (assay: [3H]-methyllycaconitine binding assay, rat brain membranes). Conditions: inhibition of [3H]-methyllycaconitine binding to rat brain membranes; Ki=IC50/(1+L/KD).
Experimental: 1. Determination of the Affinity of Test Substances for α7 nAChR by Inhibition of [^3H]-methyllycaconitine Binding to Rat Brain Membranes
The [^3H]-methyllycaconitine binding assay is a modification of the method described by Davies et al. (Neuropharmacol. 1999, 38, 679-690).
Rat brain tissue (hippocampus or whole brain) is homogenized in homogenization buffer (10% w/v) (0.32 M sucrose, 1 mM EDTA, 0.1 mM phenylmethylsulfonyl fluoride (PMSF), 0.01% (w/v) NaN3, pH 7.4, 4° C.) at 600 rpm in a glass homogenizer. The homogenate is centrifuged (1000×g, 4° C., 10 min) and the supernatant is removed. The pellet is resuspended (20% w/v) and the suspension is centrifuged (1000×g, 4° C., 10 min) The two supernatants are combined and centrifuged (15 000×g, 4° C., 30 min). This pellet is referred to as the P2 fraction.
The P2 pellet is washed twice with binding buffer (50 mM Tris-HCl, 1 mM MgCl2, 120 mM NaCl, 5 mM KCl, 2 mM CaCl2, pH 7.4), and centrifuged (15 000×g, 4° C., 30 min).
The P2 membranes are resuspended in binding buffer and incubated in a volume of 250 μl (amount of membrane protein 0.1-0.5 mg) in the presence of 1-5 nM [^3H]-methyllycaconitine, 0.1% (w/v) BSA (bovine serum albumin) and various concentrations of the test substance at 21° C. for 2.5 h. The non-specific binding is determined by incubation in the presence of 1 μM […]-bungarotoxin or 100 μM nicotine or 10 μM MLA (methyllycaconitine).
The incubation is stopped by adding 4 ml of PBS (20 mM Na2HPO4, 5 mM KH2PO4, 150 mM NaCl, pH 7.4, 4° C.) and filtering through type A/E glass fiber filters (Gelman Sciences) which have previously been placed in 0.3% (v/v) polyethyleneimine (PEI) for 3 h. The filters are washed twice with 4 ml of PBS (4° C.), and the bound radioactivity is determined by scintillation measurement. All the assays are carried out in triplicate. The dissociation constant Ki of the test substance was determined from the IC50 of the compounds (concentration of the test substance at which 50% of the ligand bound to the receptor are displaced), the dissociation constant KD and the concentration L of [^3H]methyllycaconitine (Ki=IC50/(1+L/KD)).

Sequence of α7 nAChR (Q05941 23-502 limits assumed): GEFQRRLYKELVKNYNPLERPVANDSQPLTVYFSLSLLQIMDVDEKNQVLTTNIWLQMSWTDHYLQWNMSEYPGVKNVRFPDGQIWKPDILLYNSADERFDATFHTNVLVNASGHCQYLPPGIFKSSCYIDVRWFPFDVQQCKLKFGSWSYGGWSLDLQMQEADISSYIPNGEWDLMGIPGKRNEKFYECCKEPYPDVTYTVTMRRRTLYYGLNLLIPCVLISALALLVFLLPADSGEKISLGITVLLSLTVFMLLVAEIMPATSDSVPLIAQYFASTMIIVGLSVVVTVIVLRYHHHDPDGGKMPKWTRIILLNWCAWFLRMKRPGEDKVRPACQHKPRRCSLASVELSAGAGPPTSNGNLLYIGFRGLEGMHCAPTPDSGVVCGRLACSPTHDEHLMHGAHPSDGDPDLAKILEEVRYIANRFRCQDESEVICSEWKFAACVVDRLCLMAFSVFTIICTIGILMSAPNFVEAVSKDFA

Question: With CS(=O)(=O)Nc1ccc(-c2ccc(NC(=O)[C@H]3CN4CCC3CC4)cc2)cc1 [Example 2, (3R)-N-{4′-[(Methylsulfonyl)amino]biphenyl-4-yl}quinuclidine-3-carboxamide hydrochloride] as the molecule, how does the Ki read?
Answer: The Ki was 2 nM.

Question: With O=C(Nc1ccc(-c2ccc(NS(=O)(=O)c3ccccc3)cc2)cc1)[C@H]1CN2CCC1CC2 [Example 5, (3R)—N-{4′-[(Phenylsulfonyl)amino]biphenyl-4-yl}quinuclidine-3-carboxamide hydrochloride] as the molecule, how does the Ki read?
Answer: Its Ki is under 1 nM.

Question: With NS(=O)(=O)c1ccc(-c2ccc(NC(=O)[C@H]3CN4CCC3CC4)cc2)cc1 [Example 7, (3R)—N-[4′-(Aminosulfonyl)biphenyl-4-yl]quinuclidine-3-carboxamide hydrochloride] as the molecule, how does the Ki read?
Answer: The Ki was under 1 nM.

Question: Which Ki does the source give for O=C(Nc1ccc(-c2ccc(NC(=O)[C@H]3CN4CCC3CC4)cc2)cc1)NC1CCCC1 [Example 11, (3R)—N-(4′-{[(Cyclopentylamino)carbonyl]amino}biphenyl-4-yl)quinuclidine-3-carboxamide hydrochloride] here?
Answer: Its Ki is 16 nM.

Question: O=C(Nc1ccc(-c2ccc(NC(=O)[C@H]3CN4CCC3CC4)cc2)cc1)c1cccc(F)c1 [Example 15, (3R)—N-{4′-[(3-Fluorobenzoyl)amino]biphenyl-4-yl}quinuclidine-3-carboxamide hydrochloride] was tested. Which Ki did it give?
Answer: The Ki was 27 nM.
